Test results as given in article PMC11167782, “Tunlametinib (HL-085) plus vemurafenib in patients with advanced BRAF V600-mutant solid tumors: an open-label, single-arm, multicenter, phase I study” (Experimental Hematology & Oncology, 2024).

How the values were obtained:
BRAF V600-mutant PTC = test system: BRAF V600-mutant PTC; set-up: method as in PMID 35658604; conditions: monotherapy; cited from earlier work
BRAF V600-mutant NSCLC = conditions: monotherapy; cited from earlier work
CYP3A4 = test system: CYP3A4; set-up: method as in earlier work; conditions: cited from earlier work
[1] = Phase I study: plasma pharmacokinetics (UPLC-MS/MS); conditions: for AUC(0-t) / AUC / Cmax / Tmax: human, plasma; for AUC(0-t): AUClast; for AUC(0-t) / AUC / Cmax: mean (SD); for AUC: AUCtau
Procedure: PK assessments were performed using a validated ultra-performance liquid chromatography-tandem mass spectrometry method.
All samples analyzed within established storage stability periods.

patients = test system: patients; set-up: method as in PMID 21639808; conditions: phase III trial; cited from earlier work
[2] = Multiple dose, Tunlametinib 9mg BID + vemurafenib 720mg BID
[3] = Multiple dose, Tunlametinib 9mg BID + vemurafenib 960mg BID
[4] = Multiple dose, Tunlametinib 12mg BID + vemurafenib 720mg BID
[5] = Multiple dose, Tunlametinib 12mg BID + vemurafenib 960mg BID
[6] = Multiple dose, Vemurafenib 720mg BID Total
[7] = Multiple dose, Vemurafenib 960mg Total
[8] = Single dose, Tunlametinib 9mg BID + vemurafenib 720mg BID
[9] = Single dose, Tunlametinib 9mg BID + vemurafenib 960mg BID
[10] = Single dose, Tunlametinib 12mg BID + vemurafenib 720mg BID
[11] = Single dose, Tunlametinib 12mg BID + vemurafenib 960mg BID
[12] = 720 mg, Multiple dose, Vemurafenib 720mg BID Total
[13] = 720 mg, Single dose, Vemurafenib 720mg BID Total
[14] = 960 mg, Multiple dose, Vemurafenib 960mg Total
[15] = 960 mg, Single dose, Vemurafenib 960mg Total
[16] = vemurafenib, multiple administrations, across doses

CC(C)(C)c1nc(-c2cccc(NS(=O)(=O)c3c(F)cccc3F)c2F)c(-c2ccnc(N)n2)s1 [dabrafenib]
ORR (BRAF V600-mutant PTC): 35% | Median PFS (BRAF V600-mutant NSCLC): 5.5 months | ORR (BRAF V600-mutant NSCLC): 33%

CCCS(=O)(=O)Nc1ccc(F)c(C(=O)c2c[nH]c3ncc(-c4ccc(Cl)cc4)cc23)c1F [Vemurafenib, vemurafenib]
Main metabolizing enzyme (CYP3A4): metabolized mainly by CYP3A4 | Cavg, mean (SD) [1, 2]: 29792.81 (1092.82) ng/mL | Fluctuation%, mean (SD) [1, 2]: 37.17 (4.45) % | RAUClast (accumulation ratio), mean (SD) [1, 2]: 11.76 (5.15) | RCmax (accumulation ratio), mean (SD) [1, 2]: 8.92 (3.76) | Cavg, mean (SD) [1, 3]: 47113.74 (NC) ng/mL | Fluctuation%, mean (SD) [1, 3]: 19.95 (NC) % | RAUClast (accumulation ratio), mean (SD) [1, 3]: 36.26 (58.5) | RCmax (accumulation ratio), mean (SD) [1, 3]: 16.01 (16.13) | Cavg, mean (SD) [1, 4]: 34081.99 (20393.59) ng/mL | Fluctuation%, mean (SD) [1, 4]: 36.48 (16.11) % | RAUClast (accumulation ratio), mean (SD) [1, 4]: 10.61 (4.88) | RAUCtau (accumulation ratio), mean (SD) [1, 4]: 13.29 (4.87) | RCmax (accumulation ratio), mean (SD) [1, 4]: 8.54 (4.03) | Cavg, mean (SD) [1, 5]: 28324.83 (NC) ng/mL | Fluctuation%, mean (SD) [1, 5]: 25.42 (NC) % | RAUClast (accumulation ratio), mean (SD) [1, 5]: 10.75 (2.55) | RCmax (accumulation ratio), mean (SD) [1, 5]: 8.23 (1.79) | Cavg, mean (SD) [1, 6]: 32652.26 (15958.81) ng/mL | Fluctuation%, mean (SD) [1, 6]: 36.71 (12.64) % | RAUClast (accumulation ratio), mean (SD) [1, 6]: 11.10 (4.84) | RAUCtau (accumulation ratio), mean (SD) [1, 6]: 13.29 (4.87) | RCmax (accumulation ratio), mean (SD) [1, 6]: 8.70 (3.77) | Cavg, mean (SD) [1, 7]: 45227.97 (17802.57) ng/mL | Fluctuation%, mean (SD) [1, 7]: 29.65 (16.23) % | RAUClast (accumulation ratio), mean (SD) [1, 7]: 23.92 (39.19) | RAUCtau (accumulation ratio), mean (SD) [1, 7]: 14.07 (NC) | RCmax (accumulation ratio), mean (SD) [1, 7]: 13.22 (11.54) | AUC_%Extrap, mean (SD) [1, 8]: 56.66 (6.57) % | AUC_%Extrap, mean (SD) [1, 9]: 57.98 (NC) % | AUC_%Extrap, mean (SD) [1, 10]: 61.30 (6.78) % | AUC_%Extrap, mean (SD) [1, 11]: 64.58 (NC) % | AUC_%Extrap, mean (SD) ([1]; Single dose, Vemurafenib 720mg BID Total): 60.37 (6.66) % | AUC_%Extrap, mean (SD) ([1]; Single dose, Vemurafenib 960mg Total): 61.29 (11.94) % | AUC(0-t) [1, 12]: 372 µg·h/mL | AUC(0-t) [1, 13]: 39.3 µg·h/mL | AUC [1, 12]: 392 µg·h/mL | AUC [1, 13]: 41 µg·h/mL | Cmax [1, 12]: 36600 ng/mL | Cmax [1, 13]: 4890 ng/mL | Tmax ([1]; 720 mg, Tmax, median (range), Multiple dose, Vemurafenib 720mg BID Total): 2.07 h | Tmax ([1]; 720 mg, Tmax, median (range), Single dose, Vemurafenib 720mg BID Total): 4 h | AUC(0-t) [1, 14]: 503 µg·h/mL | AUC(0-t) [1, 15]: 50.5 µg·h/mL | AUC [1, 14]: 543 µg·h/mL | AUC [1, 15]: 61.2 µg·h/mL | Cmax [1, 14]: 48300 ng/mL | Cmax [1, 15]: 6220 ng/mL | Tmax ([1]; 960 mg, Tmax, median (range), Multiple dose, Vemurafenib 960mg Total): 3.99 h | Tmax ([1]; 960 mg, Tmax, median (range), Single dose, Vemurafenib 960mg Total): 4.01 h | AUC(0-t) [1, 2]: 376 µg·h/mL | AUC(0-t) [1, 3]: 530 µg·h/mL | AUC(0-t) [1, 4]: 379 µg·h/mL | AUC(0-t) [1, 5]: 456 µg·h/mL | AUC(0-t) [1, 8]: 45.8 µg·h/mL | AUC(0-t) [1, 9]: 65.3 µg·h/mL | AUC(0-t) [1, 10]: 37.2 µg·h/mL | AUC(0-t) [1, 11]: 47.1 µg·h/mL | AUC [1, 2]: 358 µg·h/mL | AUC [1, 3]: 565 µg·h/mL | AUC [1, 4]: 409 µg·h/mL | AUC [1, 5]: 340 µg·h/mL | AUC [1, 8]: 55.2 µg·h/mL | AUC [1, 9]: 118 µg·h/mL | AUC [1, 10]: 38.2 µg·h/mL | AUC [1, 11]: 37.7 µg·h/mL | Cmax [1, 2]: 37400 ng/mL | Cmax [1, 3]: 49200 ng/mL | Cmax [1, 4]: 36800 ng/mL | Cmax [1, 5]: 42800 ng/mL | Cmax [1, 8]: 5710 ng/mL | Cmax [1, 9]: 7360 ng/mL | Cmax [1, 10]: 4610 ng/mL | Cmax [1, 11]: 5710 ng/mL | Tmax ([1]; Tmax, median (range), Multiple dose, Tunlametinib 9mg BID + vemurafenib 720mg BID): 3.92 h | Tmax ([1]; Tmax, median (range), Multiple dose, Tunlametinib 9mg BID + vemurafenib 960mg BID): 4.07 h | Tmax ([1]; Tmax, median (range), Multiple dose, Tunlametinib 12mg BID + vemurafenib 720mg BID): 1.93 h | Tmax ([1]; Tmax, median (range), Multiple dose, Tunlametinib 12mg BID + vemurafenib 960mg BID): 3.95 h | Tmax ([1]; Tmax, median (range), Single dose, Tunlametinib 9mg BID + vemurafenib 720mg BID): 4 h | Tmax ([1]; Tmax, median (range), Single dose, Tunlametinib 9mg BID + vemurafenib 960mg BID): 3.96 h | Tmax ([1]; Tmax, median (range), Single dose, Tunlametinib 12mg BID + vemurafenib 720mg BID): 4 h | Tmax ([1]; Tmax, median (range), Single dose, Tunlametinib 12mg BID + vemurafenib 960mg BID): 4.07 h | Tmax ([1]; oral, Median Tmax, vemurafenib, single-dose): ~4 h | Average accumulation ratio based on AUClast [1, 16]: 10.6 to 36.3 | Average accumulation ratio based on AUCtau [1, 16]: 13.3 to 14.1 | Average accumulation ratio based on Cmax [1, 16]: 8.2 to 16.0 | Incidence of photosensitivity (patients): 30%
